Test: xn = mol fraction of the nth substance listed
Conditions: Liquid, Vibrating tube method

CCCC [butane] + CCC
Conditions	mass density [kg/m3]
300 K, 4513.8 kPa, x2 = 0.75	523.55
300 K, 4514.7 kPa, x2 = 0.5	543.88
300 K, 4953.2 kPa, x2 = 0.5	544.76
300 K, 5016.7 kPa, x2 = 0.75	524.69
300 K, 5031 kPa, x2 = 0.25	562.9
300 K, 5451.1 kPa, x2 = 0.25	563.65
300 K, 5474.7 kPa, x2 = 0.75	525.74
300 K, 5508.8 kPa, x2 = 0.5	545.86
300 K, 5929.8 kPa, x2 = 0.25	564.5
300 K, 5950 kPa, x2 = 0.75	526.78
300 K, 5953 kPa, x2 = 0.5	546.73
300 K, 6466.1 kPa, x2 = 0.5	547.72
300 K, 6473.6 kPa, x2 = 0.75	527.92
300 K, 6488.8 kPa, x2 = 0.25	565.48
300 K, 6959.9 kPa, x2 = 0.5	548.68
300 K, 7015.2 kPa, x2 = 0.75	529.08
300 K, 7074.7 kPa, x2 = 0.25	566.49
320 K, 997.4 kPa, x2 = 0.25	529.12
320 K, 1482.2 kPa, x2 = 0.25	530.41
320 K, 1496.3 kPa, x2 = 0.5	509.2
320 K, 1509.8 kPa, x2 = 0.75	484.66
320 K, 1996.7 kPa, x2 = 0.25	531.76
320 K, 2010.3 kPa, x2 = 0.5	510.79
320 K, 2020.7 kPa, x2 = 0.75	486.64
320 K, 2497.1 kPa, x2 = 0.75	488.41
320 K, 2502.8 kPa, x2 = 0.25	533.06
320 K, 2516.5 kPa, x2 = 0.5	512.32
320 K, 2999.8 kPa, x2 = 0.5	513.74
320 K, 3011.6 kPa, x2 = 0.75	490.26
320 K, 3012.6 kPa, x2 = 0.25	534.34
320 K, 3459.5 kPa, x2 = 0.75	491.82
320 K, 3509.2 kPa, x2 = 0.5	515.19
320 K, 3516.7 kPa, x2 = 0.25	535.58
320 K, 4012.1 kPa, x2 = 0.25	536.73
320 K, 4013.7 kPa, x2 = 0.75	493.68
320 K, 4017.1 kPa, x2 = 0.5	516.6
320 K, 4472 kPa, x2 = 0.25	537.8
320 K, 4497.4 kPa, x2 = 0.5	517.9
320 K, 4512.7 kPa, x2 = 0.75	495.29
320 K, 4988.6 kPa, x2 = 0.5	519.21
320 K, 4989.7 kPa, x2 = 0.25	539
320 K, 5019.1 kPa, x2 = 0.75	496.89
320 K, 5490.6 kPa, x2 = 0.5	520.51
320 K, 5501 kPa, x2 = 0.25	540.19
320 K, 5520.4 kPa, x2 = 0.75	498.43
320 K, 5989.8 kPa, x2 = 0.5	521.77
320 K, 6001.7 kPa, x2 = 0.75	499.85
320 K, 6013.9 kPa, x2 = 0.25	541.36
320 K, 6479.5 kPa, x2 = 0.5	522.98
320 K, 6522.9 kPa, x2 = 0.75	501.37
320 K, 6524.6 kPa, x2 = 0.25	542.42
320 K, 7003.8 kPa, x2 = 0.25	543.49
320 K, 7020.7 kPa, x2 = 0.75	502.78
320 K, 7116.4 kPa, x2 = 0.5	524.52
340 K, 1485.3 kPa, x2 = 0.25	500.98
340 K, 1990.9 kPa, x2 = 0.25	502.87
340 K, 1994.9 kPa, x2 = 0.75	448.06
340 K, 2013.6 kPa, x2 = 0.5	478.5
340 K, 2454.3 kPa, x2 = 0.25	504.54
340 K, 2508.8 kPa, x2 = 0.5	480.75
340 K, 2527.2 kPa, x2 = 0.75	451.44
340 K, 2997.6 kPa, x2 = 0.25	506.44
340 K, 3013.6 kPa, x2 = 0.5	482.96
340 K, 3018 kPa, x2 = 0.75	454.37
340 K, 3488 kPa, x2 = 0.25	508.09
340 K, 3515.5 kPa, x2 = 0.5	485.04
340 K, 3542.6 kPa, x2 = 0.75	457.27
340 K, 3984.5 kPa, x2 = 0.25	509.71
340 K, 4016.2 kPa, x2 = 0.5	487.04
340 K, 4021.6 kPa, x2 = 0.75	459.81
340 K, 4469.1 kPa, x2 = 0.75	462.01
340 K, 4496.8 kPa, x2 = 0.5	488.89
340 K, 4514.8 kPa, x2 = 0.25	511.39
340 K, 4981.8 kPa, x2 = 0.25	512.84
340 K, 4991.2 kPa, x2 = 0.75	464.48
340 K, 5012.2 kPa, x2 = 0.5	490.8
340 K, 5479.2 kPa, x2 = 0.25	514.33
340 K, 5511.6 kPa, x2 = 0.5	492.6
340 K, 5517 kPa, x2 = 0.75	466.87
340 K, 5958.5 kPa, x2 = 0.25	515.74
340 K, 5990.2 kPa, x2 = 0.75	468.91
340 K, 6031.2 kPa, x2 = 0.5	494.4
340 K, 6477.8 kPa, x2 = 0.25	517.22
340 K, 6495 kPa, x2 = 0.75	471.01
340 K, 6534.4 kPa, x2 = 0.5	496.09
340 K, 6953.2 kPa, x2 = 0.75	472.85
340 K, 6991.8 kPa, x2 = 0.25	518.67
340 K, 7014.4 kPa, x2 = 0.5	497.66
360 K, 1968.3 kPa, x2 = 0.25	468.3
360 K, 2483.2 kPa, x2 = 0.25	471.24
360 K, 2528 kPa, x2 = 0.5	441.58
360 K, 2981.1 kPa, x2 = 0.75	400.91
360 K, 3014.4 kPa, x2 = 0.5	445.35
360 K, 3030.5 kPa, x2 = 0.25	474.17
360 K, 3479.5 kPa, x2 = 0.25	476.45
360 K, 3504.1 kPa, x2 = 0.75	407.74
360 K, 3530.7 kPa, x2 = 0.5	449
360 K, 4004.6 kPa, x2 = 0.25	478.98
360 K, 4023.8 kPa, x2 = 0.5	452.26
360 K, 4034.2 kPa, x2 = 0.75	413.59
360 K, 4494.7 kPa, x2 = 0.25	481.23
360 K, 4499.5 kPa, x2 = 0.75	418.08
360 K, 4529.2 kPa, x2 = 0.5	455.37
360 K, 4959.4 kPa, x2 = 0.75	422.1
360 K, 5018.1 kPa, x2 = 0.25	483.52
360 K, 5025.4 kPa, x2 = 0.5	458.22
360 K, 5477.4 kPa, x2 = 0.75	426.13
360 K, 5492.3 kPa, x2 = 0.25	485.53
360 K, 5525 kPa, x2 = 0.5	460.95
360 K, 5965.8 kPa, x2 = 0.75	429.75
360 K, 5999.9 kPa, x2 = 0.25	487.58
360 K, 6017.8 kPa, x2 = 0.5	463.52
360 K, 6472.2 kPa, x2 = 0.25	489.44
360 K, 6494 kPa, x2 = 0.75	433.3
360 K, 6530.6 kPa, x2 = 0.5	466.12
360 K, 6960.2 kPa, x2 = 0.75	436.27
360 K, 6966.9 kPa, x2 = 0.25	491.3
360 K, 6972.7 kPa, x2 = 0.5	468.36
380 K, 2507.8 kPa, x2 = 0.25	426.44
380 K, 3006.4 kPa, x2 = 0.25	431.76
380 K, 3508.7 kPa, x2 = 0.25	436.48
380 K, 3523.1 kPa, x2 = 0.5	395.46
380 K, 3998.7 kPa, x2 = 0.25	440.67
380 K, 4001.1 kPa, x2 = 0.5	402.87
380 K, 4476.5 kPa, x2 = 0.5	409.03
380 K, 4501.1 kPa, x2 = 0.25	444.52
380 K, 4538.7 kPa, x2 = 0.75	349.07
380 K, 4998.7 kPa, x2 = 0.25	448.08
380 K, 5019 kPa, x2 = 0.5	415.08
380 K, 5025.3 kPa, x2 = 0.75	362.3
380 K, 5491.2 kPa, x2 = 0.75	371.58
380 K, 5494.5 kPa, x2 = 0.5	419.73
380 K, 5497.5 kPa, x2 = 0.25	451.38
380 K, 5962.5 kPa, x2 = 0.5	423.89
380 K, 5986.2 kPa, x2 = 0.75	379.48
380 K, 5995.5 kPa, x2 = 0.25	454.49
380 K, 6480.6 kPa, x2 = 0.5	428.09
380 K, 6502.4 kPa, x2 = 0.25	457.46
380 K, 6503.9 kPa, x2 = 0.75	386.32
380 K, 6897.6 kPa, x2 = 0.75	390.75
380 K, 6908.8 kPa, x2 = 0.5	431.3
380 K, 6952.8 kPa, x2 = 0.25	459.99

mass density [kg/m3]
Conditions	300 K	320 K	340 K	360 K	380 K
x2 = 0.25	554.07	528.42	499.52	466.36	424.79
x2 = 0.5	535.4	507.52	475.99	–	387.07
x2 = 0.75	514.2	483.71	447.59	398.44	–
